Drawing on US6407114B1, “Pyrazolopyrimidinone CGMP PDE5 inhibitors for the treatment of sexual dysfunction” (Pfizer Inc., priority 1998, dated 2002), this text covers IC50 for six compounds.

For this experiment, the target named is cGMP PDE5 (UniProt O76074). Briefly: In vitro PDE inhibitory activity against cGMP PDE5. It counts as biochemical. The note with it: in vitro inhibition of cGMP PDE5. The method, then: In vitro PDE inhibitory activities against cyclic guanosine 3′,5′-monophosphate (cGMP) and cyclic adenosine 3′,5′-monophosphate (cAMP) phosphodiesterases were determined by measurement of their IC50 values (the concentration of compound required for 50% inhibition of enzyme activity).
The required PDE enzymes were isolated from a variety of sources, including human corpus cavernosum, human and rabbit platelets, human cardiac ventricle, human skeletal muscle and bovine retina, essentially by the method of W. J. Thompson and M. M. Appleman (Biochem., 1971, 10, 311). In particular, the cGMP-specific PDE (PDE5) and the cGMP-inhibited cAMP PDE (PDE3) were obtained from human corpus cavernosum tissue, human platelets or rabbit platelets; the cGMP-stimulated PDE (PDE2) was obtained from human corpus cavernosum; the calcium/calmodulin (Ca/CAM)-dependent PDE (PDE1) from human cardiac ventricle; the cAMP-specific PDE (PDE4) from human skeletal muscle; and the photoreceptor PDE (PDE6) from bovine retina.
Assays were performed using a modification of the “batch” method of W. J. Thompson et al. (Biochem., 1979, 18, 5228).

For orientation: IC50 means the concentration that inhibits the measured activity by half. With `CCOc1ncc(S(=O)(=O)N2CCN(CC)CC2)cc1-c1nc2c(c(-c3cnccn3)nn2CC)c(=O)[nH]1` [Example 18, 6-[2-Ethoxy-5-(4-ethylpiperazin-1-ylsulphonyl)pyridin-3-yl]-1-ethyl-3-(pyrazin-2-yl)-1,5-dihydro-4H-pyrazolo[3,4-d]pyrimidin-4-one], the midpoint of inhibition, the IC50, lay at 8.1 nM.

`CCCn1nc(-c2cnccn2)c2c(=O)[nH]c(-c3cc(S(=O)(=O)N4CCN(CC)CC4)cnc3OCC)nc21` [Example 19, 6-[2-Ethoxy-5-(4-ethylpiperazin-1-ylsulphonyl)pyridin-3-yl]-1-n-propyl-3-(pyrazin-2-yl)-1,5-dihydro-4H-pyrazolo[3,4-d]pyrimidin-4-one] registered an IC50 of 7.67 nM.

As for `CCCn1nc(Cc2ccccc2)c2c(=O)[nH]c(-c3cc(S(=O)(=O)N4CCN(C)CC4)ccc3OCC)nc21` [Example 4, 3-Benzyl-6-[2-ethoxy-5-(4-methylpiperazin-1-ylsulphonyl)phenyl]-1-n-propyl-1,5-dihydro-4H-pyrazolo[3,4-d]pyrimidin-4-one], the midpoint of inhibition, the IC50, lay at 5.61 nM.

Compound `CCOc1ncc(S(=O)(=O)N2CCN(CC)CC2)cc1-c1nc2c(c(-c3ccccc3)nn2CC)c(=O)[nH]1` [Example 21, 6-[2-Ethoxy-5-(4-ethylpiperazin-1-ylsulphonyl)pyridin-3-yl]-1-ethyl-3-phenyl-1,5-dihydro-4H-pyrazolo[3,4-d]pyrimidin-4-one] registered an IC50 of 4.6 nM.

As for `CCCOc1ccc(S(=O)(=O)N2CCN(C)CC2)cc1-c1nc2c(c(C)nn2Cc2ccccn2)c(=O)[nH]1` [Example 14, 3-Methyl-6-[5-(4-methylpiperazin-1-ylsulphonyl)-2-n-propoxyphenyl]-1-(pyridin-2-yl)methyl-1,5-dihydro-4H-pyrazolo[3,4-d]pyrimidin-4-one], the IC50 stood at 4.4 nM.

`CCCOc1ccc(S(=O)(=O)N2CCN(CC)CC2)cc1-c1nc2c(c(Cc3ccccn3)nn2CCC)c(=O)[nH]1` [Example 1, 6-[5-(4-Ethylpiperazin-1-ylsulphonyl)-2-n-propoxyphenyl]-1-n-propyl-3-(pyridin-2-yl)methyl-1,5-dihydro-4H-pyrazolo[3,4-d]pyrimidin-4-one] yielded an IC50 of 9.3 nM.
